Laboratory results published in ChEMBL document CHEMBL5576112, “Synthesis, in silico, in vitro evaluation of furanyl- and thiophenyl-3-phenyl-1H-indole-2-carbohydrazide derivatives as tubulin inhibitors and anticancer agents” (RSC Med Chem, 2024).
Calls of active or inactive are those of the source. The calls are words filed in the database; no cut-off is given here.

Legend:
Sus scrofa [1] = species on record: Sus scrofa; assay: Inhibition of porcine brain tubulin polymerization assessed as microtubule destabilization by measuring relative fluorescence unit at 10 uM measured at 60 secs interval for 60 mins in presence of GTP by fluorescence assay
SF-295 [2] = assay: Growth inhibition of human SF-295 cells measured after 48 hrs by sulforhodamine B assay; assay type: functional; conditions: read-out: LC50 (the source's name)
COLO 205 [3] = assay: Growth inhibition of human COLO 205 cells at 10 uM measured after 48 hrs by sulforhodamine B assay; assay type: functional, cell-based
SF-295 [4] = assay: Growth inhibition of human SF-295 cells at 10 uM measured after 48 hrs by sulforhodamine B assay; assay type: functional, cell-based
SK-MEL-5 [5] = assay: Growth inhibition of human SK-MEL-5 cells at 10 uM measured after 48 hrs by sulforhodamine B assay; assay type: functional, cell-based
SK-MEL-5 [6] = assay: Growth inhibition of human SK-MEL-5 cells measured after 48 hrs by sulforhodamine B assay; assay type: functional; conditions: for CC50: read-out: LC50 (the source's name)
COLO 205 [7] = assay: Growth inhibition of human COLO 205 cells measured after 48 hrs by sulforhodamine B assay; assay type: functional; conditions: for CC50: read-out: LC50 (the source's name)
NCI-H522 [8] = assay: Growth inhibition of human NCI-H522 cells at 10 uM measured after 48 hrs by sulforhodamine B assay; assay type: functional, cell-based
MDA-MB-231 [9] = assay: Cell cycle arrest in human MDA-MB-231 cells assessed as accumulation of cells at G0/G1 phase at 10 uM measured after 24 hrs by Muse cell analyzer based assay (reference value: 59.7%); assay type: functional
MDA-MB-231 [10] = assay: Induction of apoptosis in human MDA-MB-231 cells assessed as necrotic cells at 10 uM measured after 24 hrs by Annexin V/7-AAD double staining based muse cell analyzer method (reference value: 0.72%); assay type: functional
MDA-MB-231 [11] = assay: Induction of morphological changes in human MDA-MB-231 cells assessed as loss of cell polarity at 10 uM measured after 24 hrs; assay type: functional, cell-based
MDA-MB-231 [12] = assay: Induction of apoptosis in human MDA-MB-231 cells assessed as viable cells at 10 uM measured after 24 hrs by Annexin V/7-AAD double staining based muse cell analyzer method (reference value: 96.21%); assay type: functional; conditions: read-out: Activity
MDA-MB-231 [13] = assay: Cytotoxicity against human MDA-MB-231 cells assessed as reduction in cell viability measured after 48 hrs by MTT assay; assay type: functional, cell-based; conditions: MDA-MB-231, 48 h
MDA-MB-231 [14] = assay: Induction of apoptosis in human MDA-MB-231 cells assessed as early apoptotic cells at 10 uM measured after 24 hrs by Annexin V/7-AAD double staining based muse cell analyzer method (reference value: 1.64%); assay type: functional
MDA-MB-435 [15] = assay: Growth inhibition of human MDA-MB-435 cells at 10 uM measured after 48 hrs by sulforhodamine B assay; assay type: functional, cell-based
[16] = Cytotoxicity against human HaCaT cells assessed as reduction in cell viability measured after 48 hrs by MTT assay; assay type: toxicity, cell-based
MDA-MB-231 [17] = assay: Cell cycle arrest in human MDA-MB-231 cells assessed as accumulation of cells at G2/M phase at 10 uM measured after 24 hrs by Muse cell analyzer based assay (reference value: 27.3%); assay type: functional
Sus scrofa [18] = species on record: Sus scrofa; assay: Inhibition of porcine brain tubulin polymerization assessed as microtubule destabilization at 10 uM measured at 60 secs interval for 60 mins in presence of GTP by fluorescence assay
MDA-MB-231 [19] = assay: Induction of apoptosis in human MDA-MB-231 cells assessed as late apoptotic cells at 10 uM measured after 24 hrs by Annexin V/7-AAD double staining based muse cell analyzer method (reference value: 1.44%); assay type: functional
MDA-MB-435 [20] = assay: Growth inhibition of human MDA-MB-435 cells measured after 48 hrs by sulforhodamine B assay; assay type: functional
MDA-MB-231 [21] = assay: Cell cycle arrest in human MDA-MB-231 cells assessed as accumulation of cells at S phase at 10 uM measured after 24 hrs by Muse cell analyzer based assay (reference value: 12.9%); assay type: functional
NCI-H522 [22] = assay: Growth inhibition of human NCI-H522 cells measured after 48 hrs by sulforhodamine B assay; assay type: functional; conditions: for CC50: read-out: LC50 (the source's name)
NCI/ADR-RES [23] = assay: Growth inhibition of human NCI-ADR-RES cells measured after 48 hrs by sulforhodamine B assay; assay type: functional; conditions: for CC50: read-out: LC50 (the source's name)
SF-539 [24] = assay: Growth inhibition of human SF-539 cells at 10 uM measured after 48 hrs by sulforhodamine B assay; assay type: functional, cell-based
NCI/ADR-RES [25] = assay: Growth inhibition of human NCI-ADR-RES cells at 10 uM measured after 48 hrs by sulforhodamine B assay; assay type: functional, cell-based
SF-539 [26] = assay: Growth inhibition of human SF-539 cells measured after 48 hrs by sulforhodamine B assay; assay type: functional; conditions: for CC50: read-out: LC50 (the source's name)

SMILES | RFU (Sus scrofa [1]) [a.u.] | growth inhibition (GI) (COLO 205 [3]) | growth inhibition (GI) (SK-MEL-5 [5]) | CC50 (SK-MEL-5 [6]) [nM] | CC50 (COLO 205 [7]) [nM] | growth inhibition (GI) (NCI-H522 [8]) | GI50 (NCI-H522 [22]) [nM] | CC50 (NCI-H522 [22]) [nM] | GI50 (NCI/ADR-RES [23]) [nM] | CC50 (NCI/ADR-RES [23]) [nM] | growth inhibition (GI) (SF-539 [24]) | growth inhibition (GI) (NCI/ADR-RES [25]) | GI50 (SF-539 [26]) [nM] | CC50 (SF-539 [26]) [nM] | further results
O=C(N/N=C/c1ccc(-c2ccc(O)cc2)o1)c1[nH]c2ccc(Br)cc2c1-c1ccccc1 | 45 | Active | Active | 4140 | 7210 |  |  |  |  |  |  |  |  |  | CC50 (SF-295 [2]): 8090 nM; growth inhibition (GI) (SF-295 [4]): Active
COc1ccc(/C=N/NC(=O)c2[nH]c3ccc(Br)cc3c2-c2ccccc2)s1 | 45 | Active | Active | > 100000 | 719 | Active | 19.3 | > 100000 |  |  |  |  |  |  | Activity (MDA-MB-231 [9]): 17.9%; Activity (MDA-MB-231 [10]): 5.13%; Activity (MDA-MB-231 [11]): Active; viability at 10 µM (MDA-MB-231 [12]): 85.2%; IC50 (MDA-MB-231 [13]): 560 nM; Activity (MDA-MB-231 [14]): 3.48%; growth inhibition (GI) (MDA-MB-435 [15]): Active; IC50 at 48 h [16]: 340 nM; Activity (MDA-MB-231 [17]): 70.7%; inhibition (Sus scrofa [18]): inactive; Activity (MDA-MB-231 [19]): 6.21%; GI50 (SK-MEL-5 [6]): 52.3 nM; GI50 (MDA-MB-435 [20]): 25.3 nM; CC50 (MDA-MB-435 [20]; read-out: LC50 (the source's name)): > 100000 nM; Activity (MDA-MB-231 [21]): 11.2%; GI50 (COLO 205 [7]): 191 nM
O=C(N/N=C/c1ccc(Br)s1)c1[nH]c2ccc(Br)cc2c1-c1ccccc1 |  |  |  |  |  | Active | < 100 | > 10000 | < 100 | > 10000 | Active | Active | < 100 | > 10000 | 
O=C(N/N=C/c1ccc(Cl)s1)c1[nH]c2ccc(Br)cc2c1-c1ccccc1 |  |  |  |  |  | Active | < 100 | > 10000 | < 100 | > 10000 | Active | Active | < 100 | > 10000 | 
